Experimental data from article PMC11129975, “A first-in-human phase I study of TAS-117, an allosteric AKT inhibitor, in patients with advanced solid tumors” (Cancer Chemotherapy and Pharmacology, 2024).

Assay: Phase I safety: adverse events, adverse drug reactions, DLTs in patients with advanced solid tumors
Type: in vivo, human
Text: This was a phase I, open-label, non-randomized, dose-escalating first-in-human study to evaluate the safety, pharmacokinetics, antitumor activity, pharmacodynamics, and pharmacogenomics of TAS-117 in patients with advanced solid tumors. The study had three phases: a dose escalation phase (DEP), a regimen modification phase (RMP), and a safety assessment phase (SAP). The treatment cycle on each regimen lasted 21 days. The DEP used an accelerated titration and 3 + 3 design. TAS-117 was administered orally once daily (QD) on an empty stomach (1 h before or 2 h after a meal). Dosing was determined based on a 4-week repeated oral-dose toxicology study in monkeys (data on file, Taiho Pharmaceutical Co., Ltd.); the highest non-severely toxic dose was 1.2 mg/kg/day, which was converted to 3.84 mg/body/day, or 2.4 mg/m^2. Therefore, the starting dose was determined to be ≤ 2.4 mg/m^2. At dose level 1, TAS-117 was administered at 2 mg QD (Day − 2), and the dose was increased to 4 mg QD after 2 days (Day 1). The RMP was conducted according to a 3 + 3 design. During this phase, the dose regimen was changed from QD administration to intermittent dosing of daily TAS-117 with 4 days on/3 days off. TAS-117 was administered on an empty stomach. Dose-limiting toxicities (DLTs) were evaluated in Cycle 1 of the DEP and RMP. […] The RD and regimen for the SAP were determined based on the safety, pharmacokinetics, pharmacodynamics, and antitumor activity profile determined in the DEP and RMP. During the SAP, the safety and preliminary efficacy profiles of TAS-117 were assessed at the RD and recommended regimen. Three cohorts were included in this assessment. Cohort 1 included patients with endometrial cancer with a PIK3CA mutation; cohort 2 included patients with endometrial cancer with an AKT1 mutation, AKT1 amplification, or AKT2 amplification; and cohort 3 included patients with ovarian clear cell carcinoma.
The primary endpoints were the proportion of patients who experienced DLTs in Cycle 1 of the DEP and RMP and the incidence of adverse events (AEs) and adverse drug reactions (ADRs) in the SAP. AEs and ADRs were coded using the Medical Dictionary for Regulatory Activities (MedDRA; version 24.1) and graded according to the National Cancer Institute Common Terminology Criteria for Adverse Events (CTCAE; version 4.03). Secondary endpoints were pharmacokinetic findings, changes in the ratio of phosphorylated PRAS40 (pPRAS40)/total PRAS40 from baseline, efficacy, and pharmacogenomics findings.

C[C@]1(O)C[C@@](N)(c2ccc(-c3nc4n(c3-c3ccccc3)COc3ccncc3-4)cc2)C1 [TAS-117]
Adverse drug reactions: AST increased (SAP n = 43, All grade): 6 (14.0) n (%)
Adverse drug reactions: Any events (SAP n = 43, All grade): 43 (100.0) n (%)
Adverse drug reactions: Blood AP increased (SAP n = 43, All grade): 5 (11.6) n (%)
Adverse drug reactions: Decreased appetite (SAP n = 43, All grade): 3 (7.0) n (%)
Adverse drug reactions: Diarrhea (SAP n = 43, All grade): 5 (11.6) n (%)
Adverse drug reactions: Dry skin (SAP n = 43, All grade): 7 (16.3) n (%)
Adverse drug reactions: GGT increased (SAP n = 43, All grade): 5 (11.6) n (%)
Adverse drug reactions: GI disorders (SAP n = 43, All grade): 29 (67.4) n (%)
Adverse drug reactions: General disorders and administration site conditions (SAP n = 43, All grade): 20 (46.5) n (%)
Adverse drug reactions: Hyperglycemia (SAP n = 43, All grade): 23 (53.5) n (%)
Adverse drug reactions: Investigations (SAP n = 43, All grade): 28 (65.1) n (%)
Adverse drug reactions: Metabolism and nutrition disorders (SAP n = 43, All grade): 26 (60.5) n (%)
Adverse drug reactions: Nausea (SAP n = 43, All grade): 12 (27.9) n (%)
Adverse drug reactions: Neutrophil count decreased (SAP n = 43, All grade): 15 (34.9) n (%)
Adverse drug reactions: Pruritus (SAP n = 43, All grade): 8 (18.6) n (%)
Adverse drug reactions: Pyrexia (SAP n = 43, All grade): 12 (27.9) n (%)
Adverse drug reactions: Rash maculo-papular (SAP n = 43, All grade): 40 (93.0) n (%)
Adverse drug reactions: Skin and SC tissue disorders (SAP n = 43, All grade): 41 (95.3) n (%)
Adverse drug reactions: Stomatitis (SAP n = 43, All grade): 26 (60.5) n (%)
Adverse drug reactions: Vomiting (SAP n = 43, All grade): 4 (9.3) n (%)
Adverse drug reactions: WBC count decreased (SAP n = 43, All grade): 19 (44.2) n (%)
Adverse events: ALT increased (SAP n = 43, All grade): 8 (18.6) n (%)
Adverse events: AST increased (SAP n = 43, All grade): 8 (18.6) n (%)
Adverse events: Any events (SAP n = 43, All grade): 43 (100.0) n (%)
Adverse events: Blood AP increased (SAP n = 43, All grade): 5 (11.6) n (%)
Adverse events: Decreased appetite (SAP n = 43, All grade): 7 (16.3) n (%)
Adverse events: Diarrhea (SAP n = 43, All grade): 9 (20.9) n (%)
Adverse events: Dry skin (SAP n = 43, All grade): 10 (23.3) n (%)
Adverse events: GGT increased (SAP n = 43, All grade): 7 (16.3) n (%)
Adverse events: GI disorders (SAP n = 43, All grade): 35 (81.4) n (%)
Adverse events: General disorders and administration site conditions (SAP n = 43, All grade): 25 (58.1) n (%)
Adverse events: Hyperglycemia (SAP n = 43, All grade): 23 (53.5) n (%)
Adverse events: Investigations (SAP n = 43, All grade): 29 (67.4) n (%)
Adverse events: Metabolism and nutrition disorders (SAP n = 43, All grade): 28 (65.1) n (%)
Adverse events: Nausea (SAP n = 43, All grade): 15 (34.9) n (%)
Adverse events: Neutrophil count decreased (SAP n = 43, All grade): 15 (34.9) n (%)
Adverse events: Pruritus (SAP n = 43, All grade): 8 (18.6) n (%)
Adverse events: Pyrexia (SAP n = 43, All grade): 17 (39.5) n (%)
Adverse events: Rash maculo-papular (SAP n = 43, All grade): 40 (93.0) n (%)
Adverse events: Skin and SC tissue disorders (SAP n = 43, All grade): 41 (95.3) n (%)
Adverse events: Stomatitis (SAP n = 43, All grade): 27 (62.8) n (%)
Adverse events: Vomiting (SAP n = 43, All grade): 8 (18.6) n (%)
Adverse events: WBC count decreased (SAP n = 43, All grade): 19 (44.2) n (%)
Adverse drug reactions: ALT increased (SAP n = 43, ≥ Grade 3): 2 (4.7) n (%)
Adverse drug reactions: AST increased (SAP n = 43, ≥ Grade 3): 0 (0.0) n (%)
Adverse drug reactions: Any events (SAP n = 43, ≥ Grade 3): 30 (69.8) n (%)
Adverse drug reactions: Blood AP increased (SAP n = 43, ≥ Grade 3): 0 (0.0) n (%)
Adverse drug reactions: Decreased appetite (SAP n = 43, ≥ Grade 3): 0 (0.0) n (%)
Adverse drug reactions: Diarrhea (SAP n = 43, ≥ Grade 3): 0 (0.0) n (%)
Adverse drug reactions: Dry skin (SAP n = 43, ≥ Grade 3): 0 (0.0) n (%)
Adverse drug reactions: GGT increased (SAP n = 43, ≥ Grade 3): 4 (9.3) n (%)
Adverse drug reactions: GI disorders (SAP n = 43, ≥ Grade 3): 1 (2.3) n (%)
Adverse drug reactions: General disorders and administration site conditions (SAP n = 43, ≥ Grade 3): 0 (0.0) n (%)
Adverse drug reactions: Hyperglycemia (SAP n = 43, ≥ Grade 3): 7 (16.3) n (%)
Adverse drug reactions: Investigations (SAP n = 43, ≥ Grade 3): 16 (37.2) n (%)
Adverse drug reactions: Metabolism and nutrition disorders (SAP n = 43, ≥ Grade 3): 7 (16.3) n (%)
Adverse drug reactions: Nausea (SAP n = 43, ≥ Grade 3): 0 (0.0) n (%)
Adverse drug reactions: Neutrophil count decreased (SAP n = 43, ≥ Grade 3): 9 (20.9) n (%)
Adverse drug reactions: Pruritus (SAP n = 43, ≥ Grade 3): 0 (0.0) n (%)
Adverse drug reactions: Pyrexia (SAP n = 43, ≥ Grade 3): 0 (0.0) n (%)
Adverse drug reactions: Rash maculo-papular (SAP n = 43, ≥ Grade 3): 20 (46.5) n (%)
Adverse drug reactions: Skin and SC tissue disorders (SAP n = 43, ≥ Grade 3): 21 (48.8) n (%)
Adverse drug reactions: Stomatitis (SAP n = 43, ≥ Grade 3): 1 (2.3) n (%)
Adverse drug reactions: Vomiting (SAP n = 43, ≥ Grade 3): 0 (0.0) n (%)
Adverse drug reactions: WBC count decreased (SAP n = 43, ≥ Grade 3): 5 (11.6) n (%)
Adverse events: ALT increased (SAP n = 43, ≥ Grade 3): 2 (4.7) n (%)
Adverse events: AST increased (SAP n = 43, ≥ Grade 3): 0 (0.0) n (%)
Adverse events: Any events (SAP n = 43, ≥ Grade 3): 34 (79.1) n (%)
Adverse events: Blood AP increased (SAP n = 43, ≥ Grade 3): 0 (0.0) n (%)
Adverse events: Decreased appetite (SAP n = 43, ≥ Grade 3): 1 (2.3) n (%)
Adverse events: Diarrhea (SAP n = 43, ≥ Grade 3): 0 (0.0) n (%)
Adverse events: Dry skin (SAP n = 43, ≥ Grade 3): 0 (0.0) n (%)
Adverse events: GGT increased (SAP n = 43, ≥ Grade 3): 6 (14.0) n (%)
Adverse events: GI disorders (SAP n = 43, ≥ Grade 3): 2 (4.7) n (%)
Adverse events: General disorders and administration site conditions (SAP n = 43, ≥ Grade 3): 0 (0.0) n (%)
Adverse events: Hyperglycemia (SAP n = 43, ≥ Grade 3): 7 (16.3) n (%)
Adverse events: Investigations (SAP n = 43, ≥ Grade 3): 18 (41.9) n (%)
Adverse events: Metabolism and nutrition disorders (SAP n = 43, ≥ Grade 3): 9 (20.9) n (%)
Adverse events: Nausea (SAP n = 43, ≥ Grade 3): 0 (0.0) n (%)
Adverse events: Neutrophil count decreased (SAP n = 43, ≥ Grade 3): 9 (20.9) n (%)
Adverse events: Pruritus (SAP n = 43, ≥ Grade 3): 0 (0.0) n (%)
Adverse events: Pyrexia (SAP n = 43, ≥ Grade 3): 0 (0.0) n (%)
Adverse events: Rash maculo-papular (SAP n = 43, ≥ Grade 3): 20 (46.5) n (%)
Adverse events: Skin and SC tissue disorders (SAP n = 43, ≥ Grade 3): 21 (48.8) n (%)
Adverse events: Stomatitis (SAP n = 43, ≥ Grade 3): 1 (2.3) n (%)
Adverse events: Vomiting (SAP n = 43, ≥ Grade 3): 0 (0.0) n (%)
Adverse events: WBC count decreased (SAP n = 43, ≥ Grade 3): 5 (11.6) n (%)
Death (grade 5 respiratory failure, judged unrelated to TAS-117) (SAP, cohort 1): One patient
Adverse drug reactions: ALT increased (Total N = 65, All grade): 7 (10.8) n (%)
Adverse drug reactions: AST increased (Total N = 65, All grade): 8 (12.3) n (%)
Adverse drug reactions: Any events (Total N = 65, All grade): 64 (98.5) n (%)
